From the NIST ThermoML archive (doi:10.1016/j.jct.2016.02.009)

Assay: molar heat capacity at constant pressure
Settings: 101.33 kPa, Small (less than 1 g) adiabatic calorimetry

CCCCCCCCCCCCCCCCn1cc[n+](C)c1.O=S(=O)([N-]S(=O)(=O)C(F)(F)F)C(F)(F)F
Settings | molar heat capacity at constant pressure [J/K/mol]
5 K, Crystal 2 | 3.58
5.4 K, Crystal 2 | 4.43
5.7 K, Crystal 2 | 5.11
6.07 K, Crystal 2 | 6
6.51 K, Crystal 2 | 7.15
7.03 K, Crystal 2 | 8.58
7.55 K, Crystal 2 | 10.13
8.08 K, Crystal 2 | 11.79
8.61 K, Crystal 2 | 13.56
9.15 K, Crystal 2 | 15.43
9.69 K, Crystal 2 | 17.38
10 K, Crystal 2 | 18.51
10.24 K, Crystal 2 | 19.41
10.84 K, Crystal 2 | 21.73
11.53 K, Crystal 2 | 24.47
12.23 K, Crystal 2 | 27.33
12.92 K, Crystal 2 | 30.31
13.62 K, Crystal 2 | 33.36
14.33 K, Crystal 2 | 36.54
15 K, Crystal 2 | 39.66
15.04 K, Crystal 2 | 39.85
15.87 K, Crystal 2 | 43.67
16.8 K, Crystal 2 | 48.11
17.74 K, Crystal 2 | 52.48
18.67 K, Crystal 2 | 56.86
19.62 K, Crystal 2 | 61.3
20 K, Crystal 2 | 63.15
20.86 K, Crystal 2 | 67.23
22.4 K, Crystal 2 | 74.52
23.97 K, Crystal 2 | 81.98
25 K, Crystal 2 | 86.78
25.53 K, Crystal 2 | 89.27
27.13 K, Crystal 2 | 96.62
28.72 K, Crystal 2 | 103.9
30 K, Crystal 2 | 109.7
30.29 K, Crystal 2 | 111.1
32.02 K, Crystal 2 | 118.8
33.92 K, Crystal 2 | 126.8
35 K, Crystal 2 | 131.4
35.82 K, Crystal 2 | 134.8
37.72 K, Crystal 2 | 142.5
39.62 K, Crystal 2 | 150
40 K, Crystal 2 | 151.7
41.61 K, Crystal 2 | 158
43.71 K, Crystal 2 | 166.2
45 K, Crystal 2 | 171.3
45.8 K, Crystal 2 | 174.3
47.91 K, Crystal 2 | 182.4
50 K, Crystal 2 | 190
50.02 K, Crystal 2 | 190.2
52.13 K, Crystal 2 | 197.8
54.23 K, Crystal 2 | 205.2
56.35 K, Crystal 2 | 212.4
58.48 K, Crystal 2 | 219.5
60 K, Crystal 2 | 224.6
60.6 K, Crystal 2 | 226.5
62.72 K, Crystal 2 | 233.3
64.85 K, Crystal 2 | 240.1
66.98 K, Crystal 2 | 246.6
69.1 K, Crystal 2 | 253.2
70 K, Crystal 2 | 255.9
71.33 K, Crystal 2 | 259.9
73.67 K, Crystal 2 | 266.6
76.02 K, Crystal 2 | 273.4
78.38 K, Crystal 2 | 280
80 K, Crystal 2 | 284.5
80.57 K, Crystal 2 | 286.3
80.73 K, Crystal 2 | 286.6
82.48 K, Crystal 2 | 291.2
83.09 K, Crystal 2 | 292.8
84.4 K, Crystal 2 | 296.1
86.33 K, Crystal 2 | 301.2
88.27 K, Crystal 2 | 306.3
90 K, Crystal 2 | 310.8
90.22 K, Crystal 2 | 311.2
92.18 K, Crystal 2 | 316.2
94.15 K, Crystal 2 | 321.1
96.13 K, Crystal 2 | 326.1
98.11 K, Crystal 2 | 331
100 K, Crystal 2 | 335.5
100.1 K, Crystal 2 | 335.8
102.15 K, Crystal 2 | 340.8
104.27 K, Crystal 2 | 345.7
106.4 K, Crystal 2 | 350.6
108.54 K, Crystal 2 | 355.4
110 K, Crystal 2 | 358.8
110.68 K, Crystal 2 | 360.3
112.83 K, Crystal 2 | 365
114.99 K, Crystal 2 | 369.8
117.15 K, Crystal 2 | 374.5
119.31 K, Crystal 2 | 379.2
120 K, Crystal 2 | 380.5
121.48 K, Crystal 2 | 383.7
123.65 K, Crystal 2 | 388.2
125.82 K, Crystal 2 | 392.8
128 K, Crystal 2 | 397.3
130 K, Crystal 2 | 401.4
130.17 K, Crystal 2 | 401.7
132.35 K, Crystal 2 | 406.2
134.53 K, Crystal 2 | 410.6
136.71 K, Crystal 2 | 415
138.9 K, Crystal 2 | 419.3
140 K, Crystal 2 | 421.7
141.08 K, Crystal 2 | 423.7
143.27 K, Crystal 2 | 428.1
145.46 K, Crystal 2 | 432.5
147.65 K, Crystal 2 | 436.9
149.84 K, Crystal 2 | 441.2
150 K, Crystal 2 | 441.5
152.03 K, Crystal 2 | 445.6
154.22 K, Crystal 2 | 449.8
156.4 K, Crystal 2 | 454.1
158.59 K, Crystal 2 | 458.5
160 K, Crystal 2 | 461.2
160.78 K, Crystal 2 | 462.8
162.97 K, Crystal 2 | 467.2
165.16 K, Crystal 2 | 471.4
167.34 K, Crystal 2 | 475.7
169.53 K, Crystal 2 | 479.8
170 K, Crystal 2 | 480.8
171.71 K, Crystal 2 | 484.1
173.9 K, Crystal 2 | 488.4
176.08 K, Crystal 2 | 492.8
178.26 K, Crystal 2 | 497.1
180 K, Crystal 2 | 500.5
180.45 K, Crystal 2 | 501.5
182.63 K, Crystal 2 | 505.9
184.82 K, Crystal 2 | 510.1
187 K, Crystal 2 | 514.3
189.17 K, Crystal 2 | 518.6
190 K, Crystal 2 | 520.4
191.35 K, Crystal 2 | 523.1
193.52 K, Crystal 2 | 527.5
195.69 K, Crystal 2 | 531.7
197.86 K, Crystal 2 | 536.3
200 K, Crystal 2 | 540.8
200.02 K, Crystal 2 | 540.9
202.25 K, Crystal 2 | 545.6
204.54 K, Crystal 2 | 550.5
206.82 K, Crystal 2 | 555.5
209.11 K, Crystal 2 | 560.4
210 K, Crystal 2 | 562.3
211.39 K, Crystal 2 | 565.4
213.67 K, Crystal 2 | 570.5
215.95 K, Crystal 2 | 575.6
218.21 K, Crystal 2 | 580.9
220 K, Crystal 2 | 585
220.48 K, Crystal 2 | 586.3
222.74 K, Crystal 2 | 591.8
225 K, Crystal 2 | 597.1
227.25 K, Crystal 2 | 602.4
229.5 K, Crystal 2 | 607.7
230 K, Crystal 2 | 609.3
231.74 K, Crystal 2 | 613.5
233.97 K, Crystal 2 | 619.4
236.21 K, Crystal 2 | 625.3
238.43 K, Crystal 2 | 631.2
240 K, Crystal 2 | 635.6
240.65 K, Crystal 2 | 637.6
242.87 K, Crystal 2 | 643.5
245.08 K, Crystal 2 | 650
247.28 K, Crystal 2 | 657
249.47 K, Crystal 2 | 663.5
250 K, Crystal 2 | 665.4
251.67 K, Crystal 2 | 671.1
253.85 K, Crystal 2 | 678.2
256.03 K, Crystal 2 | 685.8
258.19 K, Crystal 2 | 693.5
260 K, Crystal 2 | 700.6
260.35 K, Crystal 2 | 701.7
262.5 K, Crystal 2 | 710.5
264.64 K, Crystal 2 | 719.9
266.77 K, Crystal 2 | 729.9
268.89 K, Crystal 2 | 740.5
270 K, Crystal 2 | 745.5
271 K, Crystal 2 | 751.1
273.1 K, Crystal 2 | 761.1
275.18 K, Crystal 2 | 773.4
277.25 K, Crystal 2 | 786.9
279.3 K, Crystal 2 | 801
280 K, Crystal 2 | 806.6
281.34 K, Crystal 2 | 816.9
283.37 K, Crystal 2 | 834.5
285.38 K, Crystal 2 | 853.3
287.36 K, Crystal 2 | 875.7
289.32 K, Crystal 2 | 901.5
290 K, Crystal 2 | 909.7
291.26 K, Crystal 2 | 930.9
293.07 K, Crystal 2 | 958.5
293.16 K, Crystal 2 | 965
293.61 K, Crystal 2 | 968.5
294.12 K, Crystal 2 | 978.5
294.63 K, Crystal 2 | 990.3
295.02 K, Crystal 2 | 1004
295.14 K, Crystal 2 | 1002
295.64 K, Crystal 2 | 1014
296.14 K, Crystal 2 | 1027
296.64 K, Crystal 2 | 1039
296.85 K, Crystal 2 | 1050
297.14 K, Crystal 2 | 1053
297.63 K, Crystal 2 | 1068
298.11 K, Crystal 2 | 1082
298.15 K, Crystal 2 | 1084
298.6 K, Crystal 2 | 1098
298.63 K, Crystal 2 | 1103
299.08 K, Crystal 2 | 1113
299.55 K, Crystal 2 | 1129
300 K, Crystal 2 | 1146
300.03 K, Crystal 2 | 1146
300.36 K, Crystal 2 | 1161
300.49 K, Crystal 2 | 1161
300.96 K, Crystal 2 | 1177
301.42 K, Crystal 2 | 1193
301.88 K, Crystal 2 | 1207
302.1 K, Crystal 2 | 1219
302.34 K, Crystal 2 | 1222
302.79 K, Crystal 2 | 1235
303.24 K, Crystal 2 | 1248
303.69 K, Crystal 2 | 1253
303.84 K, Crystal 2 | 1262
304.13 K, Crystal 2 | 1267
304.58 K, Crystal 2 | 1271
305.02 K, Crystal 2 | 1273
305.47 K, Crystal 2 | 1274
305.5 K, Crystal 1 | 1274
305.5 K, Crystal 2 | 1274
305.56 K, Crystal 1 | 1278
305.91 K, Crystal 1 | 1275
306.36 K, Crystal 1 | 1271
306.8 K, Crystal 1 | 1269
307.24 K, Crystal 1 | 1268
307.28 K, Crystal 1 | 1272
307.69 K, Crystal 1 | 1266
308.14 K, Crystal 1 | 1261
308.58 K, Crystal 1 | 1257
309.01 K, Crystal 1 | 1254
309.03 K, Crystal 1 | 1251
309.48 K, Crystal 1 | 1242
309.93 K, Crystal 1 | 1229
310 K, Crystal 1 | 1229
310.39 K, Crystal 1 | 1187
310.81 K, Crystal 1 | 1097
310.86 K, Crystal 1 | 1054
311.36 K, Crystal 1 | 989.7
311.88 K, Crystal 1 | 984.4
312.39 K, Crystal 1 | 986.1
312.73 K, Crystal 1 | 995.5
312.9 K, Crystal 1 | 992
313.41 K, Crystal 1 | 997.9
313.91 K, Crystal 1 | 1011
314.42 K, Crystal 1 | 1032
314.68 K, Crystal 1 | 1051
316.51 K, Crystal 1 | 1261
319.25 K, Crystal 1 | 1044
319.25 K, Liquid | 972
320 K, Liquid | 972
320.76 K, Liquid | 972.6
321.02 K, Liquid | 972.6
322.55 K, Liquid | 974.4
322.92 K, Liquid | 974.4
324.34 K, Liquid | 976.2
324.82 K, Liquid | 975.6
326.13 K, Liquid | 977.9
326.72 K, Liquid | 977.3
327.92 K, Liquid | 978.5
328.62 K, Liquid | 979.7
329.71 K, Liquid | 980.3
330 K, Liquid | 981
330.52 K, Liquid | 981.4
331.5 K, Liquid | 982
332.43 K, Liquid | 982.6
333.29 K, Liquid | 983.8
334.33 K, Liquid | 984.4
335.08 K, Liquid | 985.6
336.23 K, Liquid | 986.1
336.87 K, Liquid | 986.7
338.13 K, Liquid | 988.5
338.66 K, Liquid | 989.1
340 K, Liquid | 990
340.03 K, Liquid | 990.3
340.45 K, Liquid | 990.3
341.93 K, Liquid | 991.4
342.24 K, Liquid | 992
343.84 K, Liquid | 993.8
344.04 K, Liquid | 993.2
345.74 K, Liquid | 995
345.83 K, Liquid | 995
347.62 K, Liquid | 997.3
347.64 K, Liquid | 996.7
349.41 K, Liquid | 998.5
349.55 K, Liquid | 999.7
350 K, Liquid | 1000
351.2 K, Liquid | 1000
351.45 K, Liquid | 1001
353 K, Liquid | 1003
353.35 K, Liquid | 1003
354.79 K, Liquid | 1004
355.25 K, Liquid | 1006
356.58 K, Liquid | 1007
357.16 K, Liquid | 1007
358.37 K, Liquid | 1009
359.06 K, Liquid | 1009
360 K, Liquid | 1010
360.16 K, Liquid | 1011
360.96 K, Liquid | 1011
361.95 K, Liquid | 1013
362.86 K, Liquid | 1013
363.74 K, Liquid | 1014
364.75 K, Liquid | 1015
365.52 K, Liquid | 1016
366.65 K, Liquid | 1018
367.31 K, Liquid | 1018
368.55 K, Liquid | 1020
370 K, Liquid | 1022
